Reference: paper PMC7312786 (Biochemistry, 2018)

Molecular target: T1, hRev1 (Homo sapiens, UniProt Q9UBZ9)
T1 sequence (Q9UBZ9 330-833): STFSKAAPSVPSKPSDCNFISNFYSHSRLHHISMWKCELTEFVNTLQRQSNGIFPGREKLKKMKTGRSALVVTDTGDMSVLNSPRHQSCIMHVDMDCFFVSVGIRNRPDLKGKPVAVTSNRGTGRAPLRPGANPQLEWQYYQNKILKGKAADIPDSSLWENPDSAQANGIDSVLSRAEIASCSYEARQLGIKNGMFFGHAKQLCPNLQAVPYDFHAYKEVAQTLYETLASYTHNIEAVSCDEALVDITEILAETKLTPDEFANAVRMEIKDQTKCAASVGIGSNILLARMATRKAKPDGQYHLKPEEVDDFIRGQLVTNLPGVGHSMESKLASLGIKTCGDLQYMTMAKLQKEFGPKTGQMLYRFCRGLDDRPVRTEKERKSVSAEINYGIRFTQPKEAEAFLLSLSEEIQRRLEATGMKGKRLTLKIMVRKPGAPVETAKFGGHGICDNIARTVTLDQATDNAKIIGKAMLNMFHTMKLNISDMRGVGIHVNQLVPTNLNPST
Experiment: Gel-based pol extension assay, hRev1
Format: biochemical
Settings: read-out: IC50, hRev1, gel-based assay; best-fit value (95% confidence interval), three experiments

Work on `O=C1NC(=S)NC(=O)C1=Cc1cn(Cc2ccc3ccccc3c2)c2ccc(Cl)cc12` [PNR-7-02, 5-((5-chloro-1-(naphthalen-2-ylmethyl)-1H-indol-3-yl)methylene)-2-thioxodihydropyrimidine-4,6-(1H,5H)-dione] yielded an IC50 of 8 µM.
